# According to patent publication US20210060166A1, “Method for the preparation of a 1,7-bis (4-hydroxy-3-methoxyphenyl)-1,6-heptadiene-3,5-dione system in polysorbates for the formation of micelles in an aqueous medium aimed at the properties of the bioavailability of curcuminoids” (priority 2019, published 2021):
# Tests used:
# Format in all cases: physicochemical
# [1] = dialysis release of curcumin through cellulose membrane
# From the text: Spectrum™ Spectra/Por™ 4 RC Dialysis Membrane Tubing 12,000 to 14,000 Dalton MWCO, cellulose, was used. The release conditions were pH 6.8, Polysorbate 1, 8%, Polysorbate 2, 4%. The pH 6.8 was used as Kiyohiko Sugano, Hirokazu Hamada, Minoru Machida, Hidetoshi Ushio, Kimitoshi Saitoh, Katsuhide Terada. Optimized conditions of bio-mimetic artificial membrane permeation assay. International Journal of Pharmaceutics Volume 228, Issues 1-2, 9 Oct. 2001, Pages 181-188 to simulate the conditions of the intestine, where the absorption of the compound is carried out. Concentrations of 8 and 4 percent of the polysorbates were used to ensure that the solution is above the CMC and the ability to form micelles is not lost, since the analytical method requires that an amount of release medium gets removed and replenish with simple medium (FEUM, volume 1, eleventh edition.).
# [2] = integration of curcumin into aqueous phase with polysorbates (UV/VIS 424 nm); conditions: 25° C.
# Method: Three concentrations of polysorbate of different value of HLB were evaluated in a 1:1 ratio for each mixture; With this combination of surfactants, 3 aqueous systems were prepared at concentrations of 0.0052%, 0.04% and 0.113% (% weight/weight). The first corresponds to a concentration below the individual Critical Micellar Concentration (CMC) of each surfactant 2.8529 mg/L, the second corresponds to a concentration slightly above the CMC 6.8439 mg/L and the third corresponds to a concentration well above the CMC, respectively 21.222 mg/L (FIG. 1). […] After 30 minutes of stirring at 500 RPM at 25° C., the suspensions were allowed to stand for 30 minutes and a sample from the supernatant was taken for UV/VIS spectrophotometric evaluation at 424 nm, using the 3 mentioned concentrations as blank.
# The ability to form a micellar system of 1,7-bis (4-hydroxy-3-methoxyphenyl)-1,6-heptadien-3,5-dione at different percentages of polysorbates was evaluated.
# [3] = suspension capacity of polysorbates for curcumin by gravimetry; conditions: Tween 80-Tween 20 (1:1)
# Method: The suspension capacity of the polysorbates for 1,7-bis (4-hydroxy-3-methoxyphenyl)-1,6-heptadien-3,5-dione was evaluated by gravimetry according to P[…] THE UNITED MEXICAN STATES (FEUM), volume 1, eleventh edition.
# Stating that at ratios of <100 of Tween 20 or 80, the capacity is not sufficient to suspend the required analyte dose. However, after 160 mg/mL (1:1) the presence of precipitate was found. In FIG. 2, different concentrations of polysorbate (Tween 80-Tween 20 (1:1) are specified in which, when mixed with analyte results in absence or presence of analyte precipitate (FIG. 3).
compound,measurement,setting,value
"COc1cc(C=CC(=O)CC(=O)C=Cc2ccc(O)c(OC)c2)ccc1O [curcumin, 1,7-bis (4-hydroxy-3-methoxyphenyl)-1,6-heptadien-3,5-dione]",concentration released over time,[1]; absence of polysorbates in the medium,does not show any increase in concentration over time
same,concentration released over time,"[1]; pH 6.8, Polysorbate 1 8%, Polysorbate 2 4%, 0.25 h to 20 h",increases with time
same,curcumin concentration in solution,[2]; polysorbates 0.0052% w/w (below CMC),2.8529 mg/L
same,curcumin concentration in solution,[2]; polysorbates 0.04% w/w (slightly above CMC),6.8439 mg/L
same,curcumin concentration in solution,[2]; polysorbates 0.113% w/w (well above CMC),21.222 mg/L
same,concentration after which presence of precipitate was found,[3],> 160000 µg/mL
